According to patent US20230338521A1, “METHODS OF TREATING CANCER USING A COMBINATION OF A PD-1 ANTAGONIST, A CHEMORADIATION THERAPY AND A PARP INHIBITOR” (priority 2020, published 2023):
“And” between values parts separate entries of the source, which are not always exact repeats. Identical values can stand only once.

Tests used:
[1] = system: unresectable, locally advanced stage III NSCLC; assay: Phase 2 clinical trial of pembrolizumab plus platinum doublet chemotherapy and concurrent radiotherapy: ORR, duration of response, PFS, OS by BICR per RECIST v1.1; type: in vivo, human; settings: pembrolizumab plus CCRT; for 6-mo OS rate / 6-mo PFS rate / Response duration ≥6 month, % / Duration of response, median (range): Kaplan-Meier estimate; for Duration of response, median (range): + = no progressive disease at last assessment; for ORR, % [90% CI]: patients with ≥15 weeks follow up, data cutoff Jan. 3, 2020
From the text: (§1) FIG. 1 illustrate a schema of a clinical phase 2 study of pembrolizumab plus platinum doublet chemotherapy and concurrent radiotherapy as first-line therapy for unresectable, locally advanced stage III NSCLC (NSCLC).
(§2) This is a non-randomized, open label study. FIG. 1 sets forth a schematic of the study. The primary objective is overall response rate (ORR) per response evaluation criteria in solid tumors (RECIST) version 1.1 by blinded independent central review (BICR). Secondary objectives are progression free survival (PFS), overall survival (OS) and safety. Key eligibility criteria are as set forth in FIG. 1 and include Stage IIIA-C, unresectable, locally advanced, pathologically confirmed, previously untreated NSCLC; measurable disease based on RECIST v1.1; eastern cooperative oncology group (ECOG) performance status 0 or 1; adequate pulmonary function; and no prior systemic immunosuppressive therapy within 7 days.
The table below provides ORR and Duration of Response/Efficacy by BICR per RECIST v1.1, patients with ≥15 weeks follow up (Jan. 3, 2020 data cutoff date)
PFS and OS were assessed in patients with at least 15 weeks follow up. As shown in the table above, at the data cutoff, few patients in either cohort had experienced disease progression or died.

[2] = Phase 2 clinical trial of pembrolizumab plus platinum doublet chemotherapy and concurrent radiotherapy: grade ≥3 pneumonitis and adverse events; type: in vivo, human; settings: pembrolizumab plus CCRT; for Grade ≥3 pneumonitis (all cause), % [90% CI]: all enrolled patients, data cutoff Jan. 3, 2020
From the text: as §1, §2
A secondary primary objective of the study was incidence of grade≥3 pneumonitis, which was assessed in all enrolled patients, regardless of their follow-up duration (see table below). In both cohorts, the rate of grade≥3 pneumonitis was less than 10%. One patient in cohort B had interstitial lung disease; the remaining patients had either pneumonitis or radiation pneumonitis. Incidence of other adverse events was consistent with that reported in other pembrolizumab monotherapy studies in NSCLC. Immune-mediated adverse events and infusion reactions (regardless of attribution to study treatment by the investigator) occurred in 47% of patients in cohort A and 27% in cohort B. 15% of patients in cohort A and 8% in cohort B experienced grade 2-5 immune mediated adverse events or infusion reactions.

[3] = Cohort A, N = 112, ≥15 weeks follow up
[4] = Cohort B, N = 53, ≥15 weeks follow up

## pembrolizumab: monoclonal antibody directed to the PD-1 receptor; KEYTRUDA, Merck and Co., Inc.
[1]; Cohort A, N = 112
  6-mo OS rate: 87% and 87.2%
  6-mo PFS rate: 81.4%
  Response duration ≥6 month, %: (91.1) %
  Duration of response, median (range): NR (1.6+ to 10.5+)
  ORR, % [90% CI]: (67.0) [58.9-74.3] %
[1]; [3]
  Complete response (CR), %: (2.7) %
  No Assessment, %: (8.9) %
  Not evaluable, %: (2.7) %
  PD, %: (0.9) %
  Partial response (PR), %: (64.3) %
[1]; Cohort B, N = 53
  6-mo OS rate: 95% and 94.8%
  6-mo PFS rate: 85.2%
  Response duration ≥6 month, %: (100) %
  Duration of response, median (range): NR (1.7+ to 10.5+)
  ORR, % [90% CI]: (56.6) [44.4-68.2] %
[1]; [4]
  Complete response (CR), %: (3.8) %
  No Assessment, %: (9.4) %
  Partial response (PR), %: (52.8) %
[1]; both cohorts
  ORR: exceeded 50%
[1]; both cohorts, at least 15 weeks follow up
  progression free survival rate at 6 months: greater than 80%
[1]; either cohort, at data cutoff
  Median overall survival: had not been reached
  Median progression free survival: had not been reached
[1]; most patients with a response
  Estimated response duration: ≥ 6 months
[1]; patients with unresectable, locally advanced stage III NSCLC
  antitumor activity: promising antitumor activity
[2]; Cohort A, N = 112
  Immune-mediated adverse events and infusion reactions, Grades 3-5, %: (15.2) %
  Immune-mediated adverse events and infusion reactions, Led to death, %: (3.6) %
  Treatment Releated Adverse Events, %: (93.8) %
  Treatment Releated Adverse Events, Grade 3-5, %: (64.3) %
  Treatment Releated Adverse Events, Led to death, %: (3.6) %
  Treatment Releated Adverse Events, Led to discontinuation of any treatment component, %: (28.6) %
  Grade ≥3 pneumonitis (all cause), % [90% CI]: (8.0) [4.3-13.6] %
[2]; Cohort B, N = 73
  Treatment Releated Adverse Events, %: (87.7) %
  Treatment Releated Adverse Events, Grade 3-5, %: (41.1) %
  Treatment Releated Adverse Events, Led to discontinuation of any treatment component, %: (12.3) %
  Grade ≥3 pneumonitis (all cause), % [90% CI]: (5.5) [1.9-12.1] %
[2]; cohort A
  grade 2-5 immune mediated adverse events or infusion reactions, % of patients: 15%
[2]; cohort B
  grade 2-5 immune mediated adverse events or infusion reactions, % of patients: 8%
  patients with interstitial lung disease (among grade ≥3 pneumonitis): One
[2]; compared with CCRT for stage III NSCLC and pembrolizumab monotherapy
  incidence of adverse events: consistent with the established toxicity profiles
[2]; compared with immunotherapy combined with CCRT
  Observed rates of grade ≥3 pneumonitis: within the expected range
